Assay results as given in BindingDB's records for doi:10.1021/jm8008629 (Wayne State University, 2008).

Legend:
[1] = target: D(2) dopamine receptor (Rattus norvegicus, UniProt P61169); assay: Displacement of [3H]Spiperone from rat dopamine D2L receptor expressed in HEK293 cells
[2] = target: D(3) dopamine receptor (Rattus norvegicus, UniProt P19020); assay: Displacement of [3H]Spiperone from rat dopamine D3 receptor expressed in HEK293 cells
Sequence of D(3) dopamine receptor (P19020 whole entry): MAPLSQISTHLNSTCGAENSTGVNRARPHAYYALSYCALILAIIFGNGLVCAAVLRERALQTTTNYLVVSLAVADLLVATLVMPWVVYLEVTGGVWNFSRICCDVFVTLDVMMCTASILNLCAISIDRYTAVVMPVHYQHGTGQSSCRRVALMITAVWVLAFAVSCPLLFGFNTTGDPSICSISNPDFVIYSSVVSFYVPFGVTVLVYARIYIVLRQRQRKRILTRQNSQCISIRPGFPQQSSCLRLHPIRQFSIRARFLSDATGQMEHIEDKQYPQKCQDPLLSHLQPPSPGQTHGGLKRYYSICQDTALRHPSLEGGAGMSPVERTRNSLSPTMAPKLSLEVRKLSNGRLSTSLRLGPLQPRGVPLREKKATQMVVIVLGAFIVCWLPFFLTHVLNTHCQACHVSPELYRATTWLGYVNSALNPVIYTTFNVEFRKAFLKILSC

Sequence of D(2) dopamine receptor (P61169 whole entry): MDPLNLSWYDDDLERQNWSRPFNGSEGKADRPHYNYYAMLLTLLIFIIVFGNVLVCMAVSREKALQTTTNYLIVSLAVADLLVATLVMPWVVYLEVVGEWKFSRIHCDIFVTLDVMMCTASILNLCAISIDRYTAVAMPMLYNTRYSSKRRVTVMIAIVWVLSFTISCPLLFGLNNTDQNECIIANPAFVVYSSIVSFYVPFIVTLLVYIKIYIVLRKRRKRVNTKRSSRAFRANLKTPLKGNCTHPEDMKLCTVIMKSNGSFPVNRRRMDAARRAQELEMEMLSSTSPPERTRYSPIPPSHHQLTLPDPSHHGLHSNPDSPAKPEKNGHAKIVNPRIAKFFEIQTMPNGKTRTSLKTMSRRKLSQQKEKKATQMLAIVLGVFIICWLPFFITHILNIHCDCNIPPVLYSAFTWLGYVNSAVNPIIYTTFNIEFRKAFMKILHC

Compound: Oc1ccc2c(c1)C[C@@H]1[C@@H](CCCN1CCN1CCN(c3ccccc3)CC1)C2 (racemic) [(+/-)-cis-1-[2-(4-Phenylpiperazin-1-yl)ethyl]-1,2,3,4,4a,5,10,10a-octahydrobenzo[g]quinolin-8-ol]
- Ki [1]: 3330 nM
- Ki [2]: 419 nM
